{"source": "patent US11149047B2", "about": "“Aryl imidazoles for treatment of cancer” (Aptose Biosciences Inc., priority 2017, dated 2021)", "key": {"[1]": {"test_system": "AML cell lines and various forms of lymphoma cell lines", "experiment": "Cytotoxicity study (MTS), cell line panel", "format": "cell-based", "conditions": "inhibition of proliferation; read-out: IC50 values, range over cell lines", "description": "Cells were plated and treated with vehicle DMSO or COMPOUND I (10 concentrations) in 96-well plates for 5 days at 37° C. and 5% CO2. Cell viability was measured using CellTiter 96 AQueous one solution (MTS) cell proliferation assay (Promega, catalog #G3581), and IC50 values were calculated using GraphPad Prism 7 software.\nPrevious studies reported upregulation of KLF4 and CDKN1A expression as a potential mechanism of APT0-COMPOUND I activity in tumors. […] The upregulation of CDKN1A mRNA increased with duration of exposure in all AML cell lines tested (FIGS. 15D and 15E). At later time points, CDKN1A expression began to decrease, likely due to increasing cell death. Induction of CDKN1A expression is typically associated with a subsequent G0-G1, cell-cycle arrest, which was observed following COMPOUND I treatment of solid tumor lines."}, "Raji/COMPOUND IR cells": {"test_system": "Raji/COMPOUND IR cells", "experiment": "Cellular pharmacology: intracellular accumulation and efflux by LC-MS/MS", "format": "in vitro ADME, human", "description": "Cells exposed to COMPOUND I or Fe(COMPOUND I)3 were homogenized in acetonitrile containing 5 ng of a deuterated COMPOUND I standard. Samples were analyzed at the UCSD Molecular Mass Spectrometry Facility employing an Agilent 1260 liquid chromatograph (LC) system coupled with a Thermo LCQdeca mass spectrometer using positive ion mode electrospray ionization (ESI) as the ion source. The ESI ion source voltage was set at 5 kV, with sheath gas flow rate of 80 units, auxiliary gas flow rate of 20 units, and capillary temperature of 250° C., respectively. A Phenomenex Kinetex Biphenyl column (ID 2.1 mm×length 50 mm, particle size 2.6 μm) was utilized for LC separation using water with 0.1% formic acid as the mobile phase A and acetonitrile with 0.1% formic acid as the mobile phase B. The LC flow rate was set at 0.30 mL/min. The LC gradient increased from 5% mobile phase B to 95% mobile phase B in 10 minutes, held at 95% B for 2 minutes, returned to 5% B in 1 minute, and then held at 5% B for 6 minutes. […] Selected reaction monitoring (SRM) mode was used to acquire the m/z 353 and m/z 359 fragmental peaks. The SRM peak area ratio (COMPOUND I/COMPOUND I-d6) related to the amount of spiked COMPOUND I-d6 was used for the quantification of COMPOUND I and Fe(COMPOUND I)3 in the samples. The same column, gradient and flow rate were used for detection of Fe(COMPOUND I)3 which was detected using an Agilent 1100 HPLC and Orbitrap XL (Thermo) mass spectrometer employing a Thermo IonMax ESI interface. The Fe(COMPOUND I)3 eluted around 11.5 minutes with these conditions. A 10:1 flow split was used for the eluent flow rate of 0.3 mL/min, so that approximately 0.030 mL/min was introduced into the ESI after the split. […]\nResistance in the Raji/COMPOUND IR cells may be due to alterations in influx or efflux, intracellular detoxification or a change in the primary target of the drug. The intracellular accumulation of both native COMPOUND I and the Fe(COMPOUND I)3 in Raji and Raji/COMPOUND IR cells incubated with either native COMPOUND I or the Fe(COMPOUND I)3 complex was monitored."}, "[2]": {"test_system": "BIK, BAD, MCL-1 in Raji/COMPOUND IR cells", "experiment": "Western blot of proteins involved in apoptosis", "format": "cell-based, human", "text": "In order to delineate which effects of COMPOUND I are most closely linked to sensitivity for this drug, a subline of the Raji Burkitt's lymphoma cell line that had acquired resistance (Raji/COMPOUND IR) as a result of repeated exposure to progressively higher concentrations of COMPOUND I over a period of 6 months was developed. Resistance evolved slowly and progressively without an abrupt change at any point during the selection process. […] This is in the same range as has been reported for freshly isolated AML blasts and CLL cells. Zhang et al., “Inhibition of c-Myc by ATPO-COMPOUND I as an Innovative Therapeutic Approach to Induce Cell Cycle Arrest and Apoptosis in Acute Myeloid Leukemia [abstract],” Blood 2016; 128:1716; Kurtz et al., “Broad Activity of COMPOUND I in AML and other Hematologic Malignancies Correlates with KFL4 Expression Level [abstract],” Blood 2015; 126:1358, both of which are hereby incorporated by reference. […] The level of resistance remained stable for at least 3 months during culture in drug-free media (FIG. 4A). Raji/COMPOUND IR cells grew slightly faster than the parental cells but the difference was not statistically significant."}}, "data": [{"smiles": "Cc1[nH]c2ccc(F)cc2c1-c1nc2c3cccnc3c3ncccc3c2[nH]1", "note": "[COMPOUND I, 2-(5-fluoro-2-methyl-1H-indol-3-yl)-1H-imidazo[4,5-f][1,10]phenanthroline]", "values": [{"measurement": "IC50", "setting": "[1]", "result": "57 to 1750", "unit": "nM"}, {"measurement": "rate of accumulation in Raji/COMPOUND IR vs Raji cells", "setting": "Raji/COMPOUND IR cells; 0.5 μM, FIG. 6A, 6B", "result": "severely reduced"}, {"measurement": "Rate of efflux over first 2 hours", "setting": "Raji/COMPOUND IR cells; Raji/COMPOUND IR cells, mean ± SEM, n = 6", "result": "−0.26 ± 0.025", "unit": "log fmole/10^7 cells/h"}, {"measurement": "difference in efflux over first 2 h between Raji and Raji/COMPOUND IR", "setting": "Raji/COMPOUND IR cells; after loading of the cells", "result": "no apparent difference in the efflux"}, {"measurement": "changes in BIK, BAD, MCL-1", "setting": "[2]; 0.5 μM, 24 h", "result": "None of these changes were detected"}, {"measurement": "induction of apoptosis", "setting": "[2]; concentration that induced apoptosis in Raji sensitive cells", "result": "failed to trigger apoptosis"}]}]}
